Data reported in the supplement of paper PMC4862054.

Assays:
Experiment in all cases: normalised viability (% of control), CellTiter-Blue; higher = more viable cells (about 100 = DMSO control)
BT-474 [1] = details: 100 nM; incubation time: 72 h
Outline: (§1)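 Vehicle (100) and a positive kill control (0) anchored the normalisation of each plate, and Z'-factor was used for quality control. Breast cancer cell lines in 20 µl suspension were incubated 72 h over compound in 5 µl medium in 384-well plates, followed by CellTiter-Blue at 560/590 nm. The value is normalised viability at a single listed concentration of the series.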

BT-549 = details: 100 nM; incubation time: 72 h
Outline: as §1

CAL-120 = details: 100 nM; incubation time: 72 h
Outline: as §1

CAL-148 [2] = details: 10 nM; incubation time: 72 h
Outline: as §1

CAL-51 [3] = details: 10 nM; incubation time: 72 h
Outline: as §1

CAL-85-1 [4] = details: 10 nM; incubation time: 72 h
Outline: as §1

DU-4475 [5] = details: 10 nM; incubation time: 72 h
Outline: as §1

HCC1599 [6] = details: 100 nM; incubation time: 72 h
Outline: as §1

HCC1937 = details: 100 nM; incubation time: 72 h
Outline: as §1

HDQ-P1 = details: 10 nM; incubation time: 72 h
Outline: as §1

Hs578T [7] = details: 100 nM; incubation time: 72 h
Outline: as §1

MDA-MB-231 [8] = details: 100 nM; incubation time: 72 h
Outline: as §1

MDA-MB-436 = details: 100 nM; incubation time: 72 h
Outline: as §1

MDA-MB-453 [9] = details: 10 nM; incubation time: 72 h
Outline: as §1

MDA-MB-468 [10] = details: 100 nM; incubation time: 72 h
Outline: as §1

MFM-223 [11] = details: 100 nM; incubation time: 72 h
Outline: as §1

SK-BR-3 [12] = details: 100 nM; incubation time: 72 h
Outline: as §1

BT-474 [13] = details: incubation time: 72 h
Outline: as §1

CAL-148 [14] = details: incubation time: 72 h
Outline: as §1

CAL-51 [15] = details: incubation time: 72 h
Outline: as §1

CAL-85-1 [16] = details: incubation time: 72 h
Outline: as §1

DU-4475 [17] = details: incubation time: 72 h
Outline: as §1

HCC1599 [18] = details: incubation time: 72 h
Outline: as §1

Hs578T [19] = details: incubation time: 72 h
Outline: as §1

MDA-MB-231 [20] = details: incubation time: 72 h
Outline: as §1

MDA-MB-453 [21] = details: incubation time: 72 h
Outline: as §1

MDA-MB-468 [22] = details: incubation time: 72 h
Outline: as §1

MFM-223 [23] = details: incubation time: 72 h
Outline: as §1

SK-BR-3 [24] = details: incubation time: 72 h
Outline: as §1

COc1cc([C@@H]2c3cc4c(cc3[C@@H](O[C@@H]3O[C@@H]5CO[C@@H](C)O[C@H]5[C@H](O)[C@H]3O)[C@H]3COC(=O)[C@H]23)OCO4)cc(OC)c1O [Etoposide]
Details	normalised viability [%]
BT-474 [1]	108
BT-549	77.5
CAL-51 [3]	91.1
CAL-85-1 [4]	101
CAL-120	90.8
CAL-148 [2]	93.8
DU-4475 [5]	115
HCC1599 [6]	115
HCC1937	91.3
HDQ-P1	94.2
Hs578T [7]	84.3
MDA-MB-231 [8]	96.6
MDA-MB-436	97.6
MDA-MB-453 [9]	108
MDA-MB-468 [10]	94.2
MFM-223 [11]	98.7
SK-BR-3 [12]	58.5

normalised viability [%]
Details	3 nM	10 nM	30 nM	100 nM	1000 nM	10000 nM
BT-474 [13]	–	116	–	–	96.4	87.3
CAL-51 [15]	98.6	–	85.8	77.3	–	–
CAL-85-1 [16]	99.9	–	93.9	102	–	–
CAL-148 [14]	88.6	–	81	85.7	–	–
DU-4475 [17]	108	–	72.3	61.3	–	–
HCC1599 [18]	–	99.1	–	–	94	72.3
Hs578T [19]	–	94.6	–	–	77.1	52.4
MDA-MB-231 [20]	–	121	–	–	82.7	66.1
MDA-MB-453 [21]	109	–	107	99.8	–	–
MDA-MB-468 [22]	–	107	–	–	73	35.9
MFM-223 [23]	–	99.2	–	–	107	81.6
SK-BR-3 [24]	–	98.2	–	–	46.5	12.9

C[C@]12CC[C@@H]3c4ccc(O)cc4C[C@@H](CCCCCCCCC[S+]([O-])CCCC(F)(F)C(F)(F)F)[C@H]3[C@@H]1CC[C@@H]2O (some centres not stated) [Fulvestrant]
Details	normalised viability [%]
BT-474 [1]	89.2
BT-549	94.8
CAL-51 [3]	112
CAL-85-1 [4]	95.8
CAL-120	78.5
CAL-148 [2]	86.5
DU-4475 [5]	105
HCC1599 [6]	113
HCC1937	91.9
HDQ-P1	93.3
Hs578T [7]	85.5
MDA-MB-231 [8]	79.9
MDA-MB-436	103
MDA-MB-453 [9]	81.3
MDA-MB-468 [10]	87.2
MFM-223 [11]	70.4
SK-BR-3 [12]	94.3

normalised viability [%]
Details	3 nM	10 nM	30 nM	100 nM	1000 nM	10000 nM
BT-474 [13]	–	94.7	–	–	88.4	107
CAL-51 [15]	116	–	107	109	–	–
CAL-85-1 [16]	91.8	–	91.7	90.3	–	–
CAL-148 [14]	89	–	87.5	87.3	–	–
DU-4475 [17]	91.6	–	78	91.5	–	–
HCC1599 [18]	–	93.9	–	–	82.6	92.4
Hs578T [19]	–	103	–	–	91.7	86.2
MDA-MB-231 [20]	–	105	–	–	99.7	90.2
MDA-MB-453 [21]	108	–	81.1	93.7	–	–
MDA-MB-468 [22]	–	97.5	–	–	104	83.6
MFM-223 [23]	–	67.2	–	–	77.6	45.2
SK-BR-3 [24]	–	76.9	–	–	109	84.5

O=P1(NCCCl)OCCCN1CCCl (configuration not stated) [Ifosfamide]
Details	normalised viability [%]
BT-474 [1]	120
BT-549	115
CAL-51 [3]	107
CAL-85-1 [4]	95.5
CAL-120	91.2
CAL-148 [2]	92.2
DU-4475 [5]	110
HCC1599 [6]	108
HCC1937	107
HDQ-P1	125
Hs578T [7]	94.9
MDA-MB-231 [8]	108
MDA-MB-436	95.3
MDA-MB-453 [9]	99.8
MDA-MB-468 [10]	98.7
MFM-223 [11]	81.2
SK-BR-3 [12]	70.5

normalised viability [%]
Details	3 nM	10 nM	30 nM	100 nM	1000 nM	10000 nM
BT-474 [13]	–	114	–	–	112	120
CAL-51 [15]	114	–	110	107	–	–
CAL-85-1 [16]	88.3	–	89.1	95.7	–	–
CAL-148 [14]	89.8	–	92	93	–	–
DU-4475 [17]	88.5	–	101	81.9	–	–
HCC1599 [18]	–	100	–	–	93.9	89.7
Hs578T [19]	–	102	–	–	102	115
MDA-MB-231 [20]	–	101	–	–	97.3	109
MDA-MB-453 [21]	132	–	87.3	106	–	–
MDA-MB-468 [22]	–	110	–	–	120	103
MFM-223 [23]	–	87.1	–	–	91.6	97.3
SK-BR-3 [24]	–	109	–	–	117	97.8

CC(C)Cn1cnc2c(N)nc3ccccc3c21 [Imiquimod]
Details	normalised viability [%]
BT-474 [1]	101
BT-549	96.1
CAL-51 [3]	102
CAL-85-1 [4]	95.2
CAL-120	98.5
CAL-148 [2]	105
DU-4475 [5]	93.5
HCC1599 [6]	103
HCC1937	87.1
HDQ-P1	99.5
Hs578T [7]	98.1
MDA-MB-231 [8]	87.4
MDA-MB-436	85.6
MDA-MB-453 [9]	112
MDA-MB-468 [10]	106
MFM-223 [11]	91.2
SK-BR-3 [12]	112

normalised viability [%]
Details	3 nM	10 nM	30 nM	100 nM	1000 nM	10000 nM
BT-474 [13]	–	104	–	–	115	102
CAL-51 [15]	103	–	97.9	98.1	–	–
CAL-85-1 [16]	100	–	90.6	105	–	–
CAL-148 [14]	93.1	–	102	98.5	–	–
DU-4475 [17]	97	–	101	99	–	–
HCC1599 [18]	–	102	–	–	100	109
Hs578T [19]	–	105	–	–	105	84.9
MDA-MB-231 [20]	–	84.8	–	–	89.3	107
MDA-MB-453 [21]	94.6	–	105	107	–	–
MDA-MB-468 [22]	–	102	–	–	103	107
MFM-223 [23]	–	108	–	–	98.3	102
SK-BR-3 [24]	–	85	–	–	91.2	115
